Results on two molecules are retold here after patent US20090274691A1, “Use of CD25 binding molecules in steroid-resistant patients” (priority 2001, published 2009).

One data set deals with ulcerative colitis. The conditions noted are these: chronically active, steroid-resistant or steroid-dependant ulcerative colitis; cited from earlier work.
Data set [1] concerns PHA-stimulated lymphocytes. The experiment in a line: Lymphocyte steroid sensitivity: dexamethasone inhibition of PHA-stimulated proliferation with and without basiliximab (Example 1). The conditions noted are these: effect on Imax; subjects 5-8; basiliximab 1 mg/l. It is filed as cell-based, human. The method, then: (§1) Measurement of lymphocyte steroid sensitivity: The sensitivity of peripheral blood lymphocytes to glucocorticoids is assessed in a functional assay i.e. an in vitro proliferation assay stimulated by phytohaemagglutinin (PHA) and inhibited by dexamethasone. (Hearing S D, et al. Gut 1999; 45:382-8; Hearing S D, et al. J Clin Endocrinol Metab 1999; 84:4149-54). Peripheral blood samples are collected at 09:00 hours, and peripheral blood mononuclear cells (PBMC) are separated by buoyancy centrifugation. Buoyancy centrifugation includes the separation of lymphocytes from the blood sample by centrifugation over a ficol gradient. Ficol allows red blood cells to fall through, but prevents the through-movement of lymphocytes. Peripheral blood mononuclear cells (lymphocytes and marocyes) are collected from the ficol/plasma interface. PBMC proliferation is stimulated with PHA and inhibited with dexamethasone at serial 10 fold dilutions between 10^−6 and 10^−10 mol/1. i.e. 10^−6, 10^−7, 10^−8, 10^−9, 10^−10 mol/1. Cell proliferation is measured by tritiated thymidine uptake i.e. after 2 days of incubation, radioisotape labelled thymidine (^3H-thymidine) is added to the lymphocyte culture medium and became incorporated into the DNA of proliferating lymphocyes. After 6 hours the cells are transferred from the incubator and collected on a filter mat using a cell harvester. The cells are then washed out of the well. The lymphocyte DNA that has incorporated the thymidine is trapped in the filter paper. When radioactivity levels are measured the wells which contain high numbers of actively proliferating lymphocytes (and thus will have incorporated lots of thymidine into the DNA) will have high radioactivity levels. […] The results are calculated as mean counts per minute (cpm) of triplicate cultures. Thymidine incorporation for each concentration of dexamethasone is compared to that of PHA stimulated T lymphocytes in the absence of dexamethasone, and expressed as a percentage of the uninhibited positive control. The effect of different concentrations of basiliximab on lymphocyte proliferation is also studied. In addition, an equal concentration of basiliximab is added to each cell culture medium at all concentrations of dexamethasone and the antiproliferative effect measured.
Effect of […]® on steroid sensitivity: For all eight subjects, PHA-stimulated lymphocytes are cultured in the presence of increasing concentrations of dexamethasone (10^−10-10^−6 mol/l) in the presence and absence of basiliximab (1 mg/l). In previous studies of ulcerative colitis carried out by the inventor, maximal suppression (Imax)<60% correlated with a poor response to steroid therapy (clinical steroid resistance). The exact value of Imax cannot be measured as it is the inhibition at an infinitely high level of dexamethasone. Thus, the percentage inhibition of proliferation observed at the maximum dexamethasone concentration applied (10^−6 mol/l) is used as the measure of Imax. In practice, there is good agreement between Imax and the estimated asymptotic value for maximal inhibition obtained from dose-response curves (Hearing S D et al (1999) Clin. Endoctrinol. Metab 84:4149-54). A concentration of dexamethasone of 10^−7 mol/l is approximately equivalent in terms of glucocorticoid activity to the serum concentrations of hydrocortisone achieved with intravenous therapy at standard doses. Thus, to make comparisons with the potential effect of basiliximab in vivo, the steroid sensitising effect of basiliximab at this concentration of dexamethasone may also be of interest. […] The subjects are shown in decreasing order of steroid sensitivity (with the most sensitive on the left).

The target in the next data set is T1, IL-2R (Homo sapiens, UniProt P01589).
T1 sequence (P01589 22-272): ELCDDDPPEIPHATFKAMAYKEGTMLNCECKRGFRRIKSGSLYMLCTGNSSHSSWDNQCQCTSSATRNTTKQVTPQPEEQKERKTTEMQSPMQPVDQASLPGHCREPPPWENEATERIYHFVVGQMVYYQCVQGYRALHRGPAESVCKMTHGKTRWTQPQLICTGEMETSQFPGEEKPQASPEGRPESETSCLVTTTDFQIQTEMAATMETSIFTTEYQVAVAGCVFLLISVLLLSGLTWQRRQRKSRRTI
The conditions noted are these: serum concentration of 0.2 mg/l; cited from earlier work.

For data set [2], the system named is PHA stimulated peripheral blood lymphocytes. The experiment in a line: PHA-induced lymphocyte proliferation (tritiated thymidine uptake), basiliximab in the absence of steroids. It is filed as cell-based, human. The note with it: for PHA-induced cell proliferation (cpm) / Inhibition (%): basiliximab 1 mg/l, absence of steroids; for Inhibition (%): vs PHA alone. On the procedure: as §1
Effect of […]® on lymphocyte proliferation: Serum concentration of 0.2 mg/l of basiliximab produces >90% IL-2R occupancy. To test the antiproliferative in vitro effect of basiliximab, various concentrations of between 0.01 and 10 mg/l of basiliximab are incubated with lymphocytes in the absence of steroids. These assays confirm that an in vitro concentration of >0.1 to 0.3 mg/l basiliximab is required to produce the in vitro effect of basiliximab. For further studies on the same subjects, a concentration of 1 mg/l is used. In total, the same eight subjects are studied in each experiment. The effect of basiliximab at a concentration of 1 mg/l on PHA-induced cell proliferation in the absence of steroids is shown in Table 1

For data set [3] the following is noted: at the dosage levels employed; cited from earlier work.
Data set [4] concerns phytohaemagglutinin stimulated lymphocytes. The data set can be described thus: Lymphocyte steroid sensitivity (Imax) with and without basiliximab, 32 subjects (Example 2). It is filed as cell-based, human. The note with it: basiliximab 1 mg/L. The method, then:
Peripheral blood lymphocytes are isolated from 32 subjects (25 healthy volunteers and 7 patients with quiescent Ulcerative Colitis), on 41 occasions, using buoyant density centrifugation. Lymphocyte steroid sensitivity is assessed by measuring the antiproliferative effect of dexamethasone (DEX) on phytohaemagglutinin stimulated lymphocytes. Maximum steroid induced suppression is expressed as a % of control lymphocyte proliferation (Imax). Imax is measured in the absence and presence of basiliximab (1 mg/L).

Entries after “also recorded” stand apart in the source; their conditions may differ.

Consider `Cn1cnc([N+](=O)[O-])c1Sc1ncnc2nc[nH]c12` [Azathioprine], for which the “delayed onset of action” value with ulcerative colitis is 34 months.
For basiliximab, the “Modulation of lymphocyte steroid sensitivity (LSS) of steroid-resistant subjects” value in data set [1] is “all become Steroid-sensitive”. Further, the IL-2R occupancy at IL-2R is over 90%. For the same molecule, in data set [2] (0.01 to 10 mg/l incubated with lymphocytes in the absence of steroids), the “in vitro concentration required to produce the in vitro (antiproliferative) effect” value is 0.1 to 0.3 mg/L. Also, the “PHA-induced cell proliferation (cpm)” value in data set [2] (mean of 8 subjects) came out at 23943 cpm; in data set [2] (subject 1) it was 21827 cpm; in data set [2] (subject 2) it was 15157 cpm; in data set [2] (subject 3), 27239 cpm; in data set [2] (subject 4), 27538 cpm; in data set [2] (subject 5) it was 21446 cpm. Also, the “PHA-induced cell proliferation (cpm)” value is reported as 35003 cpm in data set [2] (subject 6), 16122 cpm in data set [2] (subject 7) and 27209 cpm in data set [2] (subject 8). The “Inhibition (%)” value came out at 37.8% in data set [2] (mean of 8 subjects); 43.5% in data set [2] (subject 1); 39.9% in data set [2] (subject 2); 33.3% in data set [2] (subject 3); 15.4% in data set [2] (subject 4); 52.8% in data set [2] (subject 5). Besides, the results for the “Inhibition (%)” value in data set [2] (subject 6), in data set [2] (subject 7) and in data set [2] (subject 8) were 47.1%, 44.2% and 26.4%, respectively. The “Side-effects / safety of administration” value in data set [3] is on record as “safe”. In addition, in data set [4] (Wilcoxon signed-rank test, p<0.0001), the “Enhancement of the anti-proliferative effect of DEX” value was “significantly enhanced; also recorded: marked in vitro steroid enhancing effect”. The “Modulation of steroid-resistant subjects (Imax<60%) to steroid-sensitive” value in data set [4] (in vitro) was “All 8 steroid-resistant subjects (Imax<60%) are modulated (in vitro) to steroid-sensitive”.
